Measurements reported in patent publication US5624952A, “[(Benzodioxan, benzofuran or benzopyran) alkylamino] alkyl substituted guanidines” (Janssen Pharmaceutica N.V., priority 1993, dated 1997).
Structures can show the parent of a compound that is named as a salt.

Test system: basilar arteries of pigs
Assay: Constriction of isolated basilar artery segments of pigs in organ baths (serotonin-like response)
Conditions: Sus scrofa; pig basilar artery segments, 37° C., Krebs-Henseleit; relative to serotonin 3×10^-7 M; estimated from three different preparations; read-out: ED50 (molar concentration at which a test compound causes 50% of the constrictive response obtained with serotonin)
Description: Segments of basilar aeries taken from pigs (anaesthetised with sodium pentobarbital) were mounted for recording of isometric tension in organ baths. The preparations were bathed in Krebs--Henseleit solution. The solution was kept at 37° C. and gassed with a mixture of 95% O2 -5% CO2. The Preparations were stretched until a stable basal tension of 2 grams was obtained.
The preparations were made to constrict with serotonin (3×10^-7 M). The response to the addition of serotonin was measured and subsequently the serotonin was washed away.
This Procedure was repeated until stable responses were obtained.
Subsequently the test compound was administered to the organ bath and the constriction of the Preparation was measured. This constrictive response is expressed as a Percentage of the response to serotonin as measured Previously.
The ED50 -value (molar concentration) is defined as the concentration at which a test compound causes 50% of the constrictive response obtained with serotonin. Said
ED50 -values are estimated from experiments on three different preparations.

SMILES	EC50
Brc1ccc2c(c1)CCC(CNCCCNC1=NCCCN1)O2 (racemic) [Compound 56, (±)-N-[(6-bromo-3,4-dihydro-2H-1-benzopyran-2-yl)methyl]-N'-(1,4,5,6-tetrahydro-2-pyrimidinyl)-1,3-propanediamine ethanedioate(1:2)]	187 nM
c1ccc2c(c1)CCC(CNCCCNC1=NCCCN1)O2 (racemic) [Compound 95, (±)-N-[(3,4-dihydro-2H-1-benzopyran-2-yl)methyl]-N'-(1,4,5,6-tetrahydro-2-pyrimidinyl)-1,3-propanediamine dihydrochloride]	81.7 nM
CC(C)NC(=N)NCCCNCC1CCc2ccccc2O1 (racemic) [Compound 150, (±)-N-[3-[[(3,4-dihydro-2H-1-benzopyran-2-yl)methyl]amino]propyl]-N'-(1-methylethyl)-guanidine dihydrochloride]	46.9 nM
Fc1ccc2c(c1)CCC(CNCCCNc1ncccn1)O2 (centres unmarked) [Compound 3]	146 nM
c1cnc(NCCCNC[C@@H]2CCc3ccccc3O2)nc1 [Compound 5]	515 nM
Fc1ccc2c(c1)CC[C@H](CNCCCNc1ncccn1)O2 [Compound 13]	42.2 nM
CCc1ccc2c(c1)OC(CNCCCCNc1ncccn1)CC2 (centres unmarked) [Compound 18]	49 nM
Fc1ccc2c(c1)CC[C@H](CNCCNc1ncccn1)O2 [Compound 46, (-)-(R)-N-[(6-fluoro-3,4-dihydro-2H-1-benzopyran-2yl)methyl]-N'-(2-pyrimidinyl)-1,2-ethanediamine]	1000 nM
c1cnc(NCCCCNCC2CCc3ccccc3O2)nc1 (centres unmarked) [Compound 48]	306 nM
c1ccc2c(c1)CCC(CNCCNC1=NCCCN1)O2 (centres unmarked) [Compound 57]	542 nM
c1ccc2c(c1)CC[C@H](CNCCCNC1=NCCCN1)O2 [Compound 62, (-)-(R)-N-[(3,4-dihydro-2H-1-benzopyran-2-yl)methyl]-N'-(1,4,5,6-tetrahydro-2-pyrimidinyl)-1,3-propanediamine dihydrochloride hemihydrate]	31.7 nM
Fc1ccc2c(c1)CCC(CNCCCNC1=NCCCN1)O2 (centres unmarked) [Compound 63]	121 nM
c1ccc2c(c1)OCC(CNCCCNC1=NCCCN1)O2 (centres unmarked) [Compound 64]	89.7 nM
c1ccc2c(c1)CC[C@@H](CNCCCNC1=NCCCN1)O2 [Compound 65]	221 nM
c1ccc2c(c1)CC(CNCCCNC1=NCCCN1)O2 (centres unmarked) [Compound 66]	656 nM
Cc1ccc2c(c1)OC(CNCCCNC1=NCCCN1)CC2 (centres unmarked) [Compound 67]	17.7 nM
Fc1ccc2c(c1)CCC(CNCCCCCCNC1=NCCCN1)O2 (centres unmarked) [Compound 68]	33.3 nM
Fc1ccc2c(c1)CC[C@H](CNCCCNC1=NCCCN1)O2 [Compound 70]	6.37 nM
Fc1ccc2c(c1)OC(CNCCCNC1=NCCCN1)CC2 (centres unmarked) [Compound 72]	23.4 nM
CCc1ccc2c(c1)OC(CNCCCNC1=NCCCN1)CC2 (centres unmarked) [Compound 73]	3.46 nM
COc1cccc2c1OC(CNCCCNC1=NCCCN1)CC2 (centres unmarked) [Compound 76]	9.19 nM
COc1ccc2c(c1)OC(CNCCCNC1=NCCCN1)CC2 (centres unmarked) [Compound 78]	35.4 nM
CCc1ccc2c(c1)OC(CNCCCCCNC1=NCCCN1)CC2 (centres unmarked) [Compound 82]	17.6 nM
Cc1cccc2c1OC(CNCCCNC1=NCCCN1)CC2 (centres unmarked) [Compound 84]	13.3 nM

SMILES	EC50
CC(C)c1ccc2c(c1)OC(CNCCCNC1=NCCCN1)CC2 (centres unmarked) [Compound 86]	41.6 nM
CCCCc1ccc2c(c1)OC(CNCCCNC1=NCCCN1)CC2 (centres unmarked) [Compound 87]	88.7 nM
CCCc1ccc2c(c1)OC(CNCCCNC1=NCCCN1)CC2 (centres unmarked) [Compound 88]	7.02 nM
CC(C)(C)c1ccc2c(c1)OC(CNCCCNC1=NCCCN1)CC2 (centres unmarked) [Compound 89]	79.4 nM
c1ccc2c(c1)CCC(CNCCCCNC1=NCCCN1)O2 (centres unmarked) [Compound 97]	97.6 nM
c1ccc2c(c1)CCC(CNCCCCCNC1=NCCCN1)O2 (centres unmarked) [Compound 98]	34.2 nM
c1ccc2c(c1)CC[C@H](CNCCCCNC1=NCCCN1)O2 [Compound 99]	42.2 nM
Fc1ccc2c(c1)CCC(CNCCCNC1=NCCN1)O2 (centres unmarked) [Compound 106]	39 nM
c1ccc2c(c1)CCC(CNCCCNC1=NCCCCN1)O2 (centres unmarked) [Compound 111]	16.7 nM
N#Cc1ccnc(NCCCNCC2CCc3ccccc3O2)n1 (centres unmarked) [Compound 113]	16.3 nM
NC(=O)c1ccnc(NCCCNCC2CCc3ccccc3O2)n1 (centres unmarked) [Compound 114]	95.6 nM
c1ccc2c(c1)CCC(CNCCCNc1nccnn1)O2 (centres unmarked) [Compound 115]	45.1 nM
CCc1ccc2c(c1)OC(CNCCCNC1=NCCCCN1)CC2 (centres unmarked) [Compound 116]	68.2 nM
c1ccc2c(c1)CCC(CNCCNC1=NCCN1)O2 (centres unmarked) [Compound 129]	444 nM
c1ccc2c(c1)CCC(CNCCCNC1=NCCN1)O2 (centres unmarked) [Compound 130]	33.6 nM
CCc1ccc2c(c1)OC(CNCCCNC1=NCCN1)CC2 (centres unmarked) [Compound 133]	52.7 nM
c1ccc2c(c1)CCC(CN1CCC(NC3=NCCCN3)CC1)O2 (centres unmarked) [Compound 136]	810 nM
c1ccc2c(c1)CC[C@H](CN1CCC(NC3=NCCCN3)CC1)O2 [Compound 139]	150 nM
CCNC(=N)NCCNCC1CCc2ccccc2O1 (centres unmarked) [Compound 148]	495 nM
CCCNC(=N)NCCCNCC1CCc2ccccc2O1 (centres unmarked) [Compound 149]	99.2 nM
CN(C)C(=N)NCCCNCC1CCc2ccccc2O1 (centres unmarked) [Compound 151]	27.1 nM
Cc1ccc2c(c1)OC(CNCCCNC(=N)N(C)C)CC2 (centres unmarked) [Compound 152]	56 nM
CCc1ccc2c(c1)OC(CNCCCNC(=N)N(C)C)CC2 (centres unmarked) [Compound 153]	21.8 nM
